14 compounds from ChEMBL document CHEMBL6087443, “3-Halo-3-nitro-aza/thioflavanones: DNMT inhibitors with a two-site binding mode in the hDNMT3A catalytic pocket” (Bioorg Med Chem, 2025) can be followed below.

Calls of active or inactive are those of the source. The calls are words filed in the database; no cut-off is given here.

Data set [1] addresses DNA (cytosine-5)-methyltransferase 3A (Homo sapiens) (UniProt Q9Y6K1). Put plainly: Inhibition of hDNMT3A-c using SAM and oligonucleotide with CpG site at 10 uM incubated for 2 hrs by fluorescence-based assay relative to control.
For data set [2] the target is unchanged. Description: Inhibition of hDNMT3A-c using SAM and oligonucleotide with CpG site at 32 uM incubated for 2 hrs by fluorescence-based assay relative to control.
A short description of data set [3]: Stability of compound in DNMT methylation buffer by HPLC analysis. It is filed as physicochemical.
Data set [4] is described as follows: Stability of the compound in HEPES buffer incubated for 2 hrs by measuring inhibition of DNMT (unknown origin) at 32 uM by HPLC analysis. It is filed as physicochemical.
A short description of data set [5]: Stability of the compound at pH 5.3. It is filed as physicochemical. Particulars: buffer.
Data set [6] can be described thus: Stability of the compound in HEPES buffer incubated for 2 hrs by measuring inhibition of DNMT (unknown origin) at 10 uM by HPLC analysis. It is filed as physicochemical.

DNA (cytosine-5)-methyltransferase 3A (Homo sapiens), sequence (Q9Y6K1 whole entry, looked up): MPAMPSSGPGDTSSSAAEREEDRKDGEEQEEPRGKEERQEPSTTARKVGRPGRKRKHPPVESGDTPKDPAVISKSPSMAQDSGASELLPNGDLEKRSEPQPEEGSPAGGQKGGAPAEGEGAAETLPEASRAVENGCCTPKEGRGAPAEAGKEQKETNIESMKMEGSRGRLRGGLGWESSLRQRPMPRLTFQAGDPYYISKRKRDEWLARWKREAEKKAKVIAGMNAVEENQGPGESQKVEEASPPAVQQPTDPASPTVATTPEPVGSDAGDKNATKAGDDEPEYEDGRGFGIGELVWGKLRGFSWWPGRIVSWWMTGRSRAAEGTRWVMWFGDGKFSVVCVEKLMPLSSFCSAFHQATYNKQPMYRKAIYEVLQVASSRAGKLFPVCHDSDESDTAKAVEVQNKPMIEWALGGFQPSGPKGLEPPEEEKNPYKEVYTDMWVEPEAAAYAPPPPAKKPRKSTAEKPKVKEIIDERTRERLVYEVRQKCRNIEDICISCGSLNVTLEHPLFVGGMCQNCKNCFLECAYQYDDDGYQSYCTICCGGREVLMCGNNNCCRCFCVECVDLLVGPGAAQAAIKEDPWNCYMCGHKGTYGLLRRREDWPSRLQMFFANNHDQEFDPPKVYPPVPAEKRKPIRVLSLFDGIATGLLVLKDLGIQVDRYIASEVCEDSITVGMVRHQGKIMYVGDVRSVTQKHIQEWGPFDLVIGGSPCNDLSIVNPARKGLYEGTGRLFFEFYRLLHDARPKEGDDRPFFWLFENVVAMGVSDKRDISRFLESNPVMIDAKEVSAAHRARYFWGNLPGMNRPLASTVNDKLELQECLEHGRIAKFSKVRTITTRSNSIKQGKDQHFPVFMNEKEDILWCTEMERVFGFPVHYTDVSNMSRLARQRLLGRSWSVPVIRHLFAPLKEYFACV

A word on the inhibition: it is the share of the control response that was lost under treatment. As usually defined, the half-life is the time in which the quantity being followed falls by half. Take `COc1cccc(C2Nc3ccccc3C(=O)C2(Cl)[N+](=O)[O-])c1` (racemic): the inhibition in data set [1] amounted to 42%; in data set [2], 56%. This compound showed a half-life in data set [3] of 138 min.
The like results for `O=C1c2ccccc2S[C@@H](c2ccccc2)[C@]1(Br)[N+](=O)[O-]` (relative stereo) were, in that order, 51%, 86% and 72 min.
On to `O=C1c2ccccc2O[C@@H](c2ccccc2)[C@]1(Br)[N+](=O)[O-]` (relative stereo), for which the inhibition in data set [1] came out at 69%; in data set [2], 92%.
Turning to `O=C1c2ccccc2NC(c2ccccc2)C1[N+](=O)[O-]` (stereo unspecified), the inhibition entry in data set [1] and in data set [2] was “inactive” throughout.
`COc1cccc(C2Nc3ccccc3C(=O)C2(Br)[N+](=O)[O-])c1` (racemic): the inhibition in data set [1] stood at 59%; in data set [2], 100%. Also, the results for the Stability entry in data set [4], in data set [5] and in data set [6] were “Unstable”, “Stable” and “Unstable”, respectively. In addition, the half-life in data set [3] was 42 min.
For `O=C1c2ccccc2S[C@@H](c2ccccc2)[C@@]1(Br)[N+](=O)[O-]` (relative stereo), the inhibition in data set [1] was 42%; in data set [2], 68%. The compound also had a half-life in data set [3] of 12 min.
The like results for `O=C1c2ccccc2S[C@H](c2cccc([N+](=O)[O-])c2)[C@@]1(Br)[N+](=O)[O-]` (relative stereo) were, in that order, 27%, 59% and 54 min.
On to `O=C1c2ccccc2S[C@@H](c2ccccc2F)[C@@]1(Br)[N+](=O)[O-]` (relative stereo), for which the inhibition in data set [1] came to 42%; in data set [2] it was 67%. The half-life in data set [3] was 66 min.
The like results for `O=C1c2ccccc2NC(c2ccccc2)C1(Br)[N+](=O)[O-]` (racemic) were, in that order, 55%, 89% and 18 min.
With `O=C1c2ccccc2S[C@@H](c2ccccc2F)[C@]1(Br)[N+](=O)[O-]` (relative stereo), the inhibition in data set [1] came to 32%; in data set [2], 67%. Besides, the half-life in data set [3] was 48 min.
On to `O=C1c2ccccc2S[C@@H](c2cccc(C(F)(F)F)c2)[C@]1(Br)[N+](=O)[O-]` (relative stereo), for which the inhibition turned out to be 34% in data set [1] and 78% in data set [2]. In data set [3], this compound had a half-life of 192 min.
With `O=C1c2ccccc2S[C@@H](c2cccc(C(F)(F)F)c2)[C@@]1(Br)[N+](=O)[O-]` (relative stereo), the inhibition in data set [1] turned out to be 35%; in data set [2] it was 63%. In addition, the half-life in data set [3] is 12 min.
Turning to `O=C1c2ccccc2O[C@@H](c2ccccc2[N+](=O)[O-])[C@]1(Cl)[N+](=O)[O-]` (relative stereo), the inhibition was found to be 69% in data set [1] and 84% in data set [2].
The like results for `COc1cccc(C2Nc3ccccc3C(=O)C2[N+](=O)[O-])c1` (stereo unspecified) were, in that order, “inactive” and “inactive”.
